According to patent publication US8685730B2, “Methods and devices for differentiating pluripotent stem cells into cells of the pancreatic lineage” (Wisconsin Alumni Research Foundation, priority 2006, dated 2014):

Assays:
Format in all cases: cell-based, human
hESCs [1] = assay: Quantitative RT-PCR (QPCR) of transcript accumulation in hESCs differentiated through Stages 1-4
Experimental: Culture of undifferentiated hESCs or human iPS (hiPS) cells. Cell lines used were NIH-approved H1 (WA01) and H9 (WA09) between passage 18 and 42, though hiPS cell lines derived from iPS (IMR-90)-4-MCB-1, iPS (Foreskin)-1-MCB-1, and DF 19-9-7T-MCB-01 may be used, as well as mouse ES cells.
Chemically defined medium comprised 80% DMEM/F12 and 20% Knockout serum replacement supplemented with 1 mM L-glutamine, 1% nonessential amino acids, 0.1 mM 2-mercaptoethanol and 4 ng/ml bFGF (all from Invitrogen). hESCs were cultured in 6-well plates on a feeder layer of irradiated MEFs, and the medium was refreshed daily. When the cells were nearly confluent, the ES cell colonies were split and passaged by detaching them from the feeder layer with 2 mg/ml dispase (Invitrogen). The colonies were then rinsed off the plates and filtered through a 70 μm cell strainer to remove MEFs. The colonies remained in the strainer. The retained cells were rinsed, pipetted into small pieces, and plated on growth factor-depleted Matrigel™ (BD Biosciences) at a density of 70% to 80% confluence in MEF-conditioned media.
Stage 1. On the day after splitting, differentiation was initiated by replacing the medium with medium containing 100 ng/ml bFGF, 100 ng/ml Activin A and 50 ng/ml BMP4 (FAB) in DMEM/F12 supplemented with 2% BSA, 1 mML-glutamine, 1% nonessential amino acids and 0.1 mM 2-mercaptoethanol for 3 to 4 days. The medium was refreshed daily.
(§1) Stage 2. FAB-treated cells were detached from the plate with 2 mg/ml dispase and grown in suspension as cell aggregates in MEF-conditioned medium (CM) for 2 days. On the third day, the medium was switched to DMEM/F12 with ITS supplement (BD, 5 μg/ml insulin+5 μg/ml transferrin+5 ng/ml selenous acid) and 50 ng/ml bFGF for 12 days in suspension culture dishes. The medium was refreshed every 2 days.
Stage 3. Cell aggregates were transferred to a 15 ml centrifuge tube and allowed to settle by gravity. The medium was aspirated, and the pellet-containing tube placed on ice. Two milligrams of Matrigel™ were diluted with 3 ml of cold DMEM/F12 added to the pellet at a density of 50 to 100 cell aggregates/ml. One half milliliter of this diluted Matrigel™/cell aggregate mixture was added onto a coverslip previously loaded into wells of a 24-well plate and incubated overnight at 37° C. in 5% CO2.
Nongelled Matrigel™ was aspirated from the wells and ITSFINE medium, a serum-free medium comprised of DMEM/F12 with ITS, 10 ng/ml FGF7 (R&D), 200 nM INGAP (PSN-4765, sequence: IGLHDPSHGTLPNGS), 10 mM nicotinamide (Sigma), 10 nM exendin-4 (Sigma), 4 μg/ml insulin (Gibco) and 2 g/L BSA (Sigma) was added for 21 to 28 days. The medium was refreshed every other day. As an alternative to DMEM/F12 only, DMEM/F12 may be used for the first 14 days of culture followed by 14 days of RPMI1640 as the base medium.
Stage 4. The sphere-structured cell masses were washed and the medium was replaced with RPMI1640 supplemented with 1×B27 (Invitrogen) and 10 mM nicotinamide for 1 to 2 weeks. Alternatively, the sphere-structured cell masses may be dislodged with 2 mg/ml dispase (two hundred microliters of per well of a 24-well plate), rinsed off the plate, and placed in suspension culture dishes in DMEM/F12 supplemented with 1×B27 and 10 mM nicotinamide for 1 to 2 weeks.
Total cellular RNA was extracted with Trizol (Invitrogen). cDNA was synthesized from 1 μg total RNA using a SuperScript First-Strand Synthesis kit (Invitrogen). Quantitative real time RT-PCR (QPCR) was performed using Assays-on-demand agents (Applied Biosystems) on an ABI PRISM 7700 Sequence Detection System (Applied Biosystems) for the following transcripts: foxa2, sox17, brachyury, ngn3, pdx1, insulin, glucagon, glut2 and an endogenous control, β-actin (see Table No. 2 for assay numbers). QPCR was performed according to the equipment manufacturer's instructions. Relative quantification was carried out using the comparative cycle threshold (CT) method recommended by the supplier. […]

hESC = assay: Q-PCR CTs of pancreas-associated transcripts in BMP4-treated, differentiated hESC
Experimental: (§2) Total cellular RNA was extracted with Trizol (Invitrogen). cDNA was synthesized from 1 μg total RNA using a SuperScript First-Strand Synthesis kit (Invitrogen). Quantitative real time RT-PCR (QPCR) was performed using Assays-on-demand agents (Applied Biosystems) on an ABI PRISM 7700 Sequence Detection System (Applied Biosystems) for the following transcripts: foxa2, sox17, brachyury, ngn3, pdx1, insulin, glucagon, glut2 and an endogenous control, β-actin (see Table No. 2 for assay numbers). QPCR was performed according to the equipment manufacturer's instructions. Relative quantification was carried out using the comparative cycle threshold (CT) method recommended by the supplier. Fold change was calculated as: 2^−ΔΔCT. Mean ΔΔCT values from QPCR analyses were compared using the unpaired, two-tailed Student's t-test. P values <0.05 were considered significant.

hESCs [2] = assay: Trophoblast differentiation (hCG and CDX2 expression); conditions: for cdx2 expression at Stage 1: compared to undifferentiated hESCs
Experimental: FIG. 3 illustrates how treatment of hESCs with BMP4 and/or bFGF influences cell fate. Cultures of adherent, undifferentiated hESCs grown in MEF-conditioned media were treated for 1, 4, or 7 days and then assayed for human chorionic gonadotropin (hCG) protein expression (a) or hCG transcript accumulation by QPCR (b). For QPCR results, the fold change values and statistical analyses were calculated by comparing treated cells with cells grown to the same time point but without added growth factors (ctrl). B10, 10 ng/ml BMP4; B50, 50 ng/ml BMP4; B100, 100 ng/ml BMP4; B10F, 10 ng/ml BMP4+100 ng/ml bFGF; B50F, 50 ng/ml BMP4+100 ng/ml bFGF; B100F, 100 ng/ml BMP4+100 ng/ml bFGF. *, p<0.05; **, p<0.01.
FIG. 4 illustrates the expression of cdx2 transcript at Stage 1. Fold change values compared to undifferentiated hESCs are shown. […] CM, conditioned media; F, bFGF; A, Activin A; B, BMP4; inhib, SB431542 Activin signaling inhibitor; D/F, DMEM/F12; I, insulin. See Materials and Methods for growth factor concentrations.
as §2

hESCs [3] = assay: Embryoid body formation and pancreatic differentiation in suspension culture
Experimental: as §1

NC(=O)c1ccc(-c2nc(-c3ccc4c(c3)OCO4)c(-c3ccccn3)[nH]2)cc1 [SB431542, reference compound]
expression of gsc, Mixl1, Brachyury and FOXA2 (hESCs [1]; added to cells treated with bFGF+BMP4 in CM): completely inhibited expression

insulin: a PI3K agonist, component of serum replacement
induction of Brachyury (hESCs [1]; combined with Activin A): significantly increased | induction of SOX17 (hESCs [1]; combined with Activin A): significantly decreased

BMP4: bone morphogenetic protein 4, member of the TGFβ superfamily
endoderm- (sox17, foxa2, pdx1) and pancreas-associated (pdx1, insulin) transcripts in EBs (hESCs [1]; hESCs grown on MEFs, 50 ng/ml): increased | Q-PCR CT of Foxa2 (hESC; EB14): 24.0 | Q-PCR CT of Glucagon (hESC; EB14): 28.7 | Q-PCR CT of Glut2 (hESC; EB14): 23.0 | Q-PCR CT of Insulin (hESC; EB14): 34.6 | Q-PCR CT of Pdx1 (hESC; EB14): 26.7 | Q-PCR CT of T (hESC; EB14): 25.4 | Q-PCR CT of β-actin (hESC; EB14): 15.0 | Q-PCR CT of Foxa2 (hESC; EB14 + 14): 23.1 | Q-PCR CT of Glucagon (hESC; EB14 + 14): 22.0 | Q-PCR CT of Glut2 (hESC; EB14 + 14): 22.0 | Q-PCR CT of Insulin (hESC; EB14 + 14): 28.4 | Q-PCR CT of Pdx1 (hESC; EB14 + 14): 23.9 | Q-PCR CT of T (hESC; EB14 + 14): 27.9 | Q-PCR CT of β-actin (hESC; EB14 + 14): 14.7 | Q-PCR CT of Foxa2 (hESC; EB14 + 21): 23.0 | Q-PCR CT of Glucagon (hESC; EB14 + 21): 21.0 | Q-PCR CT of Glut2 (hESC; EB14 + 21): 21.1 | Q-PCR CT of Insulin (hESC; EB14 + 21): 27.8 | Q-PCR CT of Pdx1 (hESC; EB14 + 21): 24.3 | Q-PCR CT of T (hESC; EB14 + 21): 28.4 | Q-PCR CT of β-actin (hESC; EB14 + 21): 14.9 | Q-PCR CT of Foxa2 (hESC; EB14 + 28): 22.7 | Q-PCR CT of Glucagon (hESC; EB14 + 28): 20.2 | Q-PCR CT of Glut2 (hESC; EB14 + 28): 20.4 | Q-PCR CT of Insulin (hESC; EB14 + 28): 26.0 | Q-PCR CT of Pdx1 (hESC; EB14 + 28): 23.0 | Q-PCR CT of T (hESC; EB14 + 28): 28.5 | Q-PCR CT of β-actin (hESC; EB14 + 28): 15.4 | Q-PCR CT of Foxa2 (hESC; hESC + BMP4): 25.6 | Q-PCR CT of Glucagon (hESC; hESC + BMP4): >50 | Q-PCR CT of Glut2 (hESC; hESC + BMP4): 32.8 | Q-PCR CT of Insulin (hESC; hESC + BMP4): >50 | Q-PCR CT of Pdx1 (hESC; hESC + BMP4): 36.4 | Q-PCR CT of T (hESC; hESC + BMP4): 25.6 | Q-PCR CT of β-actin (hESC; hESC + BMP4): 15.0 | cdx2 expression at Stage 1 (hESCs [2]): increase in cdx2 expression | trophoblast differentiation (hCG and CDX2 expression) (hESCs [2]; higher concentrations, alone, 7 days): high proportion of trophoblast differentiation

B1: noggin: a known BMP antagonist (protein, UniProt Q13253 28-232, looked up)
Noggin: QHYLHIRPAPSDNLPLVDLIEHPDPIFDPKEKDLNETLLRSLLGGHYDPGFMATSPPEDRPGGGGGAAGGAEDLAELDQLLRQRPSGAMPSEIKGLEFSEGLAQGKKQRLSKKLRRKLQMWLWSQTFCPVLYAWNDLGSRFWPRYVKVGSCFSKRSCSVPEGMVCKPSKSVHLTVLRWRCQRRGGQRCGWIPIQYPIISECKCSC
effect of BMP4 on endoderm- and pancreas-associated transcripts (hESCs [1]; 300 ng/ml, simultaneous incubation with 50 ng/ml BMP4): eliminated | expression of SOX17, FOXA2, Brachyury and PDX1 (hESCs [1]; added during Stage 1, read at the end of Stage 2): significantly reduced levels of expression

B2: Activin A: member of the TGF-β superfamily (protein, UniProt P08476 311-426, looked up)
Inhibin beta A chain: GLECDGKVNICCKKQFFVSFKDIGWNDWIIAPSGYHANYCEGECPSHIAGTSGSSLSFHSTVINHYRMRGHSPFANLKSCCVPTKLRPMSMLYYDDGQNIIKKDIQNMIVEECGCS
modifications: Inhibin beta A chain
notes: member of the TGF-β superfamily
induction of MIXL1, GSC, T, SOX17 and FOXA2 (hESCs [1]; CDM, compared to undifferentiated cells in CM): significant induction | induction of pancreatic cell differentiation (hESCs [3]; 5, 50 or 100 ng/ml in serum-free medium, treatment alone): cannot induce pancreatic cell differentiation | EB formation from treated hESCs (hESCs [3]; Stage 1 treatment in CDM): failed to develop | cdx2 expression at Stage 1 (hESCs [2]): essentially eliminates expression of cdx2
